According to patent US20130116251A1, “Novel HSP90 Inhibitor” (Nippon Kayaku Kabushiki Kaisha, priority 2005, published 2013):
Structures can show the parent of a compound that is named as a salt.

Assays:
rHSP90 = assay: HSP90 binding assay (BIACORE SPR; inhibition of binding between rHSP90 and fixed herbimycin A); conditions: concentration inhibiting binding between rHSP90 (50 μg/mL) and fixed herbimycin A by 50%, BIACORE-X SPR; read-out: HSP90 inhibitory activity IC50
Text: The HSP90 binding assay system is a system for detecting the change of mass as SPR signal caused by the binding between herbimycin A fixed on a sensor chip and rHSP90 by BIACORE-X, in which 17-(6-amino hexylamino)herbimycin A is fixed through a carboxyl group on the surface of the sensor chip (CM5, BIACORE) on which carboxymethyldextran has been introduced. The method was according to the protocol of BIACORE. In addition, 17-(6-aminohexylamino)herbimycin A was synthesizes as described below.
rHSP90 (Stressgen Biotechnologies Corp., Victoria, BC Canada) at 50 μg/mL was exposed for 10 seconds to the surface of the sensor chip on which herbimycin A was fixed and the SPR signal (numerical value of interaction) was detected.
After mixing rHSP90 protein (5×10^−7M (50 μg/mL)) with the triazole derivative of the present invention, the mixture was exposed for 10 seconds to the surface of the sensor chip on which herbimycin A was fixed, and the SPR signal was measured by BIACORE-X.
Next, using following formula (1), the inhibitory activity (binding inhibition rate (%)) of the compound of the present invention to the binding between rHSP90 and fixed herbimycin A was obtained.
binding inhibition rate(%)=((b−s)/b)×100 Formula (1)
wherein b is the SPR signal when the compound of the present invention is not added to the sample: s is the SPR signal when the compound of the present invention is added to the sample.

[1] = test system: HSP90 client protein ERα in MCF7 cells; assay: Measurement test for amount of HSP90 client protein ERα (Western blotting); assay type: cell-based; conditions: MCF7 cells treated 16 hours at 3-5 concentrations
Description: (§1) MCF7 cells (American Type Culture Collection, Rockville, Md.) were treated with the compounds of the present invention at various concentrations for 16 hours to confirm that the HSP90 inhibitors of the present invention induce a depression of intracellular concentration of the client protein or target polypeptide that bind to HSP90. The amount of the HSP90 client protein Her2 and ERα was evaluated by the Western blotting method.
(§2) One million cells were seeded in a 6 cm dish, and 24 hours later the compounds of the present invention (Example 1-2, Example 2-1, Example 2-13, Example 2-2, Example 3-4, Example 2-5, Example 3-16, Example 3-6, Example 2-7, Example 3-27, Example 2-10 and Example 3-18) were added. Cells treated with the compounds were washed, mixed with 150 μl of lysis buffer (RIPA, 150 mM NaCl, 1% NP40, 0.1% deoxycholate (sodium salt), 0.1% SDS, 1 mM EDTA, 10 mM Tris-HCl (pH 8.0)) and incubated at 4° C. for 30 minutes. The cell lysates were centrifuged (15,000 rpm, 20 minutes) and protein (20 μg) of the supernatant was subjected to SDS polyacrylamide gel electrophoresis (SDS-PAGE). After finishing the electrophoresis, proteins in the gel were transferred to a PVDF membrane. The membrane after the transfer was treated with a primary antibody against the HSP90 client protein (anti Her2 or anti ERa antibody, both from Santa Cruz Biotechnology, Santa Cruz, Calif.), then treated with secondary antibodies (anti-rabbit Ig, horse radish peroxidase conjugated F(ab′)2 fragment (derived from donkey): Amersham Biosciences, UK Limited, Buckinghamhshire, UK.) and then the amount of the client protein was detected as the intensity of chemiluminescence signal with a chemiluminescence reagent (ECL: Amersham Biosciences UK Limited, Buckinghamshire, UK).

[2] = test system: HSP90 client protein Her2 in MCF7 cells; assay: Measurement test for amount of HSP90 client protein Her2 (Western blotting); assay type: cell-based; conditions: MCF7 cells treated 16 hours at 3-5 concentrations
Description: as §1, §2

[3] = test system: Human breast cancer cells (MCF7); assay: Antiproliferative activity on MCF7 cells (methylene blue method); assay type: cell-based; conditions: Homo sapiens, MCF7, 72 h, MCF7 cells, 72 hours treatment, 660 nm absorbance after methylene blue staining; read-out: Antiproliferative activity IC50
Description: Human breast cancer cells (MCF7) were treated with samples of various concentrations of known HSP90 inhibitors (that is, geldanamycin, herbimycin, radicicol and PU3) and the compounds of the present invention for 72 hours to confirm the effect of the triazole derivatives of the present invention on the cell growth. The cell ratio after the drug treatment was evaluated by measuring 660 nm absorbance by a microplate reader (BioRad) after staining the cells with the methylene blue method.
Cells were distributed to wells of 96 well plates at 2000 cells per well and treated with drugs 24 hours later. Further, the medium was removed 72 hours later and the cells were fixed by adding 50 μl of methanol and standing at room temperature for 2 minutes. After removing methanol, 100 μl of a staining solution was added and stained for 30 minutes. After washing 3 times with 200 μl of distilled water, 3% HCl solution was added, and the 660 nm absorbance of methylene blue was measured by a microplate reader (BioRad).
Next, the antiproliferative activity rate (%) was obtained by the formula (2) below.
Antiproliferative activity rate(%)=((B−A)/B)×100 Formula (2)
wherein B is 660 nm absorbance of the sample when the compound of the present invention is not added, and A is 660 nm absorbance of the sample when the compound of the present invention is added.
From the concentration of the triazole derivative of the present invention and the antiproliferative activity rate, the concentration was obtained using the above formula, at which the cell growth was suppressed by 50% by comparing with the control, and termed an IC50 value.
The antiproliferative activity rate (%) was obtained for SH-b04, SH-b05 and SH-b06 described above by a similar manner to that of the triazole derivatives of the present invention.

Human lung cancer H460 = assay: Antitumor effect on nude mice transplanted with human lung cancer H460; assay type: in vivo; conditions: tail vein, starting day = 1.0
Description: Antitumor Effect on Nude Mice Transplanted with Human Lung Cancer
Human lung cancer H460 tumor fragment, which had been passaged subcutaneously in nude mice, was made into about 3 mm fragment and transplanted subcutaneously to the back of nude mice using a trocar. When the tumor volume grew to about 50 mm^3 or above, the compound of the present invention was administered to the tail vein once a day for 5 or 7 days every day. The compound of the present invention was dissolved in DMSO, mixed with TWEEN 80, and then diluted with a 5% glucose injection solution and used. The vehicle of the compound was administered to the control group of OH-a01. The control groups in other experiments were not treated. The tumor volume was measured on the first administration day and on the evaluation day (7 or 8 days after the start of the administration), and the relative tumor volume of the evaluation day was obtained from the tumor volume on the first administration day. Further, the tumor volume was calculated by measuring the major axis (Lmm) and minor axis (Wmm) of the tumor and by the formula (L×W^2)/2.
Relative tumor volume represents the average relative tumor volume on day 7 after the start of the administration, assuming the tumor volume of the starting day is 1.0.
Relative tumor volume represents the average relative tumor volume on day 8 after the start of the administration, assuming the tumor volume of the starting day is 1.0.

[4] = Table 10, 100 mg/kg/day, 5 days continuous, day 8, control group 6.5 ± 2.0

Compound	melting point	IC50 (rHSP90) [nM]	amount of HSP90 client protein ERα [1]	amount of HSP90 client protein Her2 [2]	IC50 [3] [nM]	Relative tumor volume (Average ± SD) (Human lung cancer H460; Table 8, 3.8 mg/kg/day, 7 days continuous, day 7, control group 7.3 ± 1.7)	Relative tumor volume (Average ± SD) (Human lung cancer H460; Table 8, 7.5 mg/kg/day, 7 days continuous, day 7, control group 7.3 ± 1.7)	Relative tumor volume (Average ± SD) (Human lung cancer H460; Table 9, 75 mg/kg/day, 5 days continuous, day 8, control group 4.6 ± 3.1)	Relative tumor volume (Average ± SD) (Human lung cancer H460; Table 9, 150 mg/kg/day, 5 days continuous, day 8, control group 4.6 ± 3.1)	Relative tumor volume (Average ± SD) (Human lung cancer H460; Table 10, 50 mg/kg/day, 5 days continuous, day 8, control group 6.5 ± 2.0)	Relative tumor volume (Average ± SD) (Human lung cancer H460; [4])	Relative tumor volume (Average ± SD) (Human lung cancer H460; Table 10, 150 mg/kg/day, 5 days continuous, day 8, control group 6.5 ± 2.0)
COc1ccc(-n2c(-c3cc(C(C)C)c(O)cc3O)nnc2S(=O)(=O)CCCN(C)C)cc1 (as salt: hydrochloride) [SFN2-a08, 4-[5-(3-dimethylamino-propane-1-sulfonyl)-4-(4-methoxy-phenyl)-4H-[1,2,4]triazol-3-yl]-6-isopropyl-benzene-1,3-diol]	233 °C (dec.)											
COc1ccc(-n2c(NS(C)(=O)=O)nnc2-c2cc(C(C)C)c(O)cc2O)cc1 [Example N1-a08, N-[5-(2,4-dihydroxy-5-isopropyl-phenyl)-4-(4-methoxy-phenyl)-4H-[1,2,4]triazol-3-yl]-methanesulfonamide]		290	depression	depression	180							
CC(C)c1cc(-c2n[nH]c(=O)n2-c2ccc(N3CCOCC3)cc2)c(O)cc1O [OH-a01, 4-{5-hydroxy-4-[4-(morpholin-4-yl)-phenyl]-4H-[1,2,4]triazol-3-yl}-6-isopropyl-benzene-1,3-diol]		140	depression	depression	4.9	3.3 ± 0.7	1.7 ± 0.5					
CC(C)c1cc(-c2n[nH]c(=O)n2-c2ccc(CN3CCOCC3)cc2)c(O)cc1O [OH-a02, 4-{5-hydroxy-4-[4-(morpholin-4-ylmethyl)-phenyl]-4H-[1,2,4]triazol-3-yl}-6-isopropyl-benzene-1,3-diol]		180	depression	depression	16			3.5 ± 2.3	2.1 ± 0.1			
CC(C)c1cc(-c2n[nH]c(=O)n2-c2ccc(O)cc2)c(O)cc1O [OH-a11, 5-(2,4-dihydroxy-5-isopropylphenyl)-4-(4-hydroxyphenyl)-4H-[1,2,4]triazol-3-one]		220	depression	depression	77							
CC(C)c1cc(-c2n[nH]c(=O)n2-c2ccc(CN3CCN(C)CC3)cc2)c(O)cc1O [OH-a13, 5-(2,4-dihydroxy-5-isopropylphenyl)-4-[4-(4-methylpiperazin-1-ylmethyl)phenyl]-2,4-dihydro-[1,2,4]triazol-3-one]		250	depression	depression	71					1.4 ± 0.5	1.1 ± 0.3	
CC(C)c1cc(-c2n[nH]c(=O)n2C(C)C)c(O)cc1O [OH-a21, 5-(2,4-dihydroxy-5-isopropyl-phenyl)-4-isopropyl-2,4-dihydro-[1,2,4]triazol-3-one]	261 to 262 °C (dec.)	130	depression	depression	38							
COc1ccc(-n2c(-c3cc(C(C)C)c(O)cc3O)nnc2S(=O)(=O)CCCN(C)C)cc1 [SFN2-a08, 4-[5-(3-dimethylamino-propane-1-sulfonyl)-4-(4-methoxy-phenyl)-4H-[1,2,4]triazol-3-yl]-6-isopropyl-benzene-1,3-diol]		700	depression	depression	69							
COc1ccc(-n2c(-c3cc(C(C)C)c(O)cc3O)nnc2S(=O)(=O)CCCN2CCCCC2)cc1 [SFN3-a08, 4-isopropyl-6-[4-(4-methoxy-phenyl)-5-(3-piperidin-1-yl-propane-1-sulfonyl)-4H-[1,2,4]triazol-3-yl]-benzene-1,3-diol]		590	depression	depression	44						5.4 ± 1.3	2.9 ± 0.6
CC(C)c1cc(-c2nnc(S(C)(=O)=O)n2-c2ccc(CN3CCOCC3)cc2)c(O)cc1O [SFN-a02, 4-isopropyl-6-{5-methanesulfonyl-4-[4-(morpholin-4-ylmethyl)-phenyl]-4H-[1,2,4]triazol-3-yl}-benzene-1,3-diol]		120	depression	depression	150							
COc1ccc(-n2c(-c3cc(C(C)C)c(O)cc3O)nnc2S(C)(=O)=O)cc1 [SFN-a08, 4-isopropyl-6-[5-methanesulfonyl-4-(4-methoxy-phenyl)-4H-[1,2,4]triazol-3-yl]-benzene-1,3-diol]		94	depression	depression	270							
CC(C)c1cc(-c2n[nH]c(=S)n2-c2ccc(CN3CCOCC3)cc2)c(O)cc1O [SH-a02, 4-isopropyl-6-{5-mercapto-4-[4-(morpholin-4-ylmethyl)-phenyl]-4H-[1,2,4]triazol-3-yl}-benzene-1,3-diol]		240	depression	depression	36							
